Results taken from the NIST ThermoML archive (doi:10.1016/j.jct.2018.03.011).
Numbers after ± are expanded uncertainties.

How the values were obtained:
[1] = for Normal melting temperature: Crystal; for viscosity / mass density: 101.33 kPa, Liquid; for viscosity: Falling or rolling sphere viscometry; for mass density: Vibrating tube method
[2] = Molar enthalpy of transition or fusion; conditions: Crystal; DSC

## CCCCn1cc[n+](C)c1.[Br-] [1-butyl-3-methylimidazolium bromide]
[1]; visual observation
  Normal melting temperature: 79.0 ± 1.1 °C

## CCCC[N+]1(C)CCOCC1.[Br-] [4-butyl-4-methylmorpholinium bromide]
[1]; DTA
  Normal melting temperature: 211.1 ± 1.1 °C
[2]
  Molar enthalpy of transition or fusion: 3.54 ± 0.263 kcal/mol

## CC[N+]1(C)CCOCC1.[Br-] [N-ethyl-N-methylmorpholinium bromide]
[1]; DTA
  Normal melting temperature: 172.5 ± 5.1 °C
[2]
  Molar enthalpy of transition or fusion: 3.99 ± 0.263 kcal/mol

## OCCOCCO [diethylene glycol]
[1]; 293.2 K
  viscosity: 38.11 ± 3.8 mPa·s
  mass density: 1116.4 ± 1.1 kg/m3
[1]; 298.2 K
  viscosity: 29.82 ± 3 mPa·s
  mass density: 1112.8 ± 1.1 kg/m3
[1]; 303.2 K
  viscosity: 23.64 ± 2.4 mPa·s
  mass density: 1109.2 ± 1.1 kg/m3
[1]; 308.2 K
  viscosity: 19.02 ± 1.9 mPa·s
  mass density: 1105.7 ± 1.1 kg/m3
[1]; 313.2 K
  viscosity: 15.6 ± 1.6 mPa·s
  mass density: 1102.1 ± 1.1 kg/m3
[1]; 318.2 K
  viscosity: 12.69 ± 1.3 mPa·s
  mass density: 1098.5 ± 1.1 kg/m3
[1]; 323.2 K
  viscosity: 10.62 ± 1.1 mPa·s
  mass density: 1094.8 ± 1 kg/m3
[1]; 328.2 K
  viscosity: 8.853 ± 0.89 mPa·s
  mass density: 1091.2 ± 1 kg/m3
[1]; 333.2 K
  viscosity: 7.362 ± 0.74 mPa·s
  mass density: 1087.5 ± 1 kg/m3
[1]; 338.2 K
  viscosity: 6.208 ± 0.62 mPa·s
  mass density: 1083.8 ± 1 kg/m3
[1]; 343.2 K
  viscosity: 5.324 ± 0.54 mPa·s
  mass density: 1080.1 ± 1 kg/m3

## O=S1(=O)CCCC1 [sulfolane]
[1]; 308.2 K
  viscosity: 9.194 ± 0.92 mPa·s
  mass density: 1257.4 ± 1.1 kg/m3
[1]; 313.2 K
  viscosity: 8.116 ± 0.82 mPa·s
  mass density: 1253 ± 1.1 kg/m3
[1]; 318.2 K
  viscosity: 7.201 ± 0.72 mPa·s
  mass density: 1248.6 ± 1.1 kg/m3
[1]; 323.2 K
  viscosity: 6.439 ± 0.65 mPa·s
  mass density: 1244.2 ± 1.1 kg/m3
[1]; 328.2 K
  viscosity: 5.772 ± 0.58 mPa·s
  mass density: 1239.8 ± 1.1 kg/m3
[1]; 333.2 K
  viscosity: 5.199 ± 0.52 mPa·s
  mass density: 1235.5 ± 1.1 kg/m3
[1]; 338.2 K
  viscosity: 4.714 ± 0.47 mPa·s
  mass density: 1231.1 ± 1.1 kg/m3
[1]; 343.2 K
  viscosity: 4.268 ± 0.43 mPa·s
  mass density: 1226.7 ± 1.1 kg/m3

## OCCOCCOCCO [triethylene glycol]
[1]; 293.2 K
  viscosity: 48.32 ± 4.9 mPa·s
  mass density: 1123.1 ± 1.1 kg/m3
[1]; 298.2 K
  viscosity: 37.16 ± 3.8 mPa·s
  mass density: 1119.2 ± 1.1 kg/m3
[1]; 303.2 K
  viscosity: 29.27 ± 2.9 mPa·s
  mass density: 1115.4 ± 1.1 kg/m3
[1]; 308.2 K
  viscosity: 23.74 ± 2.4 mPa·s
  mass density: 1111.5 ± 1.1 kg/m3
[1]; 313.2 K
  viscosity: 19.26 ± 1.9 mPa·s
  mass density: 1107.6 ± 1.1 kg/m3
[1]; 318.2 K
  viscosity: 16.41 ± 1.6 mPa·s
  mass density: 1103.8 ± 1.1 kg/m3
[1]; 323.2 K
  viscosity: 13.51 ± 1.4 mPa·s
  mass density: 1099.9 ± 1.1 kg/m3
[1]; 328.2 K
  viscosity: 11.35 ± 1.1 mPa·s
  mass density: 1096 ± 1.1 kg/m3
[1]; 333.2 K
  viscosity: 9.602 ± 0.97 mPa·s
  mass density: 1092.1 ± 1.1 kg/m3
[1]; 338.2 K
  viscosity: 8.278 ± 0.83 mPa·s
  mass density: 1088.2 ± 1.1 kg/m3
[1]; 343.2 K
  viscosity: 7.351 ± 0.74 mPa·s
  mass density: 1084.3 ± 1 kg/m3
